Patent publication US12054562B2, “Cell-permeable inhibitory agent and methods of use thereof in treatment of cognitive and mood disorders” (priority 2015, dated 2024)

Molecular target: T1, gephyrin and α5 subunit interaction (Mus musculus, UniProt Q8BUV3)
T1 construct: from tissue; host or cells: hippocampus of adult mice
T1 sequence (Q8BUV3 1-769): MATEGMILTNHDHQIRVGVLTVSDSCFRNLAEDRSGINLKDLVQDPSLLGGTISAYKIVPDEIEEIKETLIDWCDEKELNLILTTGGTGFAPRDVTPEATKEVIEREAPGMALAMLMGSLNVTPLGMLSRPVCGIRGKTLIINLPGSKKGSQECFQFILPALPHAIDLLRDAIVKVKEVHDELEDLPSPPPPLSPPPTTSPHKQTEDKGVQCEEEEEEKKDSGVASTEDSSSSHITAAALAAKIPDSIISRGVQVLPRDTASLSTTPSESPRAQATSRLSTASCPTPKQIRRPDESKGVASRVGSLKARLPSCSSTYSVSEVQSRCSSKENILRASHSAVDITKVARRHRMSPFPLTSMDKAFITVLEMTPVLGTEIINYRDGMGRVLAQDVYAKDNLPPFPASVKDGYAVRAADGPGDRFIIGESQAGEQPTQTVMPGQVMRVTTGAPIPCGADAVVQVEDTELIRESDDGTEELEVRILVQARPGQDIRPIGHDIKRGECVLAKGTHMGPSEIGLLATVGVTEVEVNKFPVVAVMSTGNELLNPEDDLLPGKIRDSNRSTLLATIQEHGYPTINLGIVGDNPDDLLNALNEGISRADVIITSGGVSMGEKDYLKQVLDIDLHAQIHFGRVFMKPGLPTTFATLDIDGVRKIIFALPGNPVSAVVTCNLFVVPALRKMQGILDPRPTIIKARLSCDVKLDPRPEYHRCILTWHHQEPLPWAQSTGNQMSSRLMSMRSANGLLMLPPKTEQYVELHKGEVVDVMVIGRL
Test: Co-IP and WB of gephyrin and α5 subunit interaction
Type: binding
Settings: immunoprecipitates from Example 1, hippocampal tissue
Description: For the immunoprecipitation experiment, the tissue lysate containing […] protein (in 250 μl) was incubated with 20 μM (20 μl) of either the inhibitory peptide (SEQ ID NO:1) or scramble peptide (SEQ ID NO:5) without TAT sequence. One hour following the incubation, the antibodies (2-4 μg) against either α5 subunit (cat #sc—31417, Santa Cruz Biotechnology, Inc., 10410 Finnell St. Dallas, TX, 75220, USA) or radixin (cat #ab91312, Abcam Inc., c/o 913860, PO Box 4090 Stn A, Toronto, ON M5W 0E9), or 4 μg of non-specific IgG protein (cat #sc—2028, Santa Cruz Biotechnology, Inc., 10410 Finnell St. Dallas, TX, 75220, USA), were added to the lysate solution. After gently shaking overnight at 4° C., the immune complexes were precipitated with protein A/G plus-agarose beads (Santa Cruz Biotechnology, Inc., 10410 Finnell St. Dallas, TX, 75220, USA). Forty microliters of the A/G plus agarose beads were added to the immune complex solution and shaking gently for 2 h at 4° C. After spin with the microcentrifuge (Eppendorf Mini-Spin Plus, Marshall Scientific, 424 Route 125, Brentwood, NH 03833, USA), the immunoprecipitates were washed four times with ice-cold PBS, then resuspended in 2× Laemmli sample loading buffer containing 5% […], and boiled for 5 min. These samples were subjected to Western blot experiment. […]

NYFTKRGWAWDGKKAL [inhibitory peptide] was tested, and the “gephyrin and α5 subunit interaction” value was “did not interfere”.
